This note sets out measurements from patent publication US20240287076A1, “COMPOUNDS FOR TARGETING DEGRADATION OF BRUTON'S TYROSINE KINASE” (BIOGEN MA INC., priority 2021, published 2024).

What is called DC50 is the concentration at which degradation of the target reaches its halfway point. The low end stands for a more potent degrader, the high end for a less potent degrader.

T1 sequence (Q06187 whole entry, the tested form may be a part): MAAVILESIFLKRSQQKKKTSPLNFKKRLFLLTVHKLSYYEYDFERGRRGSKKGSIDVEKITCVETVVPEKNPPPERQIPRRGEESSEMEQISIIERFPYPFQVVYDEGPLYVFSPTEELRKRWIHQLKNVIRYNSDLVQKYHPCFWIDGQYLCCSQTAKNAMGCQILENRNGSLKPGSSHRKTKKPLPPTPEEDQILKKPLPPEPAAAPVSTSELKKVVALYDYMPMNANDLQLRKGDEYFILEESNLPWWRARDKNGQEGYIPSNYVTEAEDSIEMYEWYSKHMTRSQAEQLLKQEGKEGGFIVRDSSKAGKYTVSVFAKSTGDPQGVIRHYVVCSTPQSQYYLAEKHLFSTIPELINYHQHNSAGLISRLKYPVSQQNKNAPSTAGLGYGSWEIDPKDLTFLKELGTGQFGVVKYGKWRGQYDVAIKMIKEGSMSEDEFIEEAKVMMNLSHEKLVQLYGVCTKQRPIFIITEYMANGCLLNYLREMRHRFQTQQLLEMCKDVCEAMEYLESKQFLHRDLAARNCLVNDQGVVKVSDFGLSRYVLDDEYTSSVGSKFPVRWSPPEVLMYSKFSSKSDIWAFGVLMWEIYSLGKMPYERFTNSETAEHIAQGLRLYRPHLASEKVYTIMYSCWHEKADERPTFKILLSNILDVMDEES

The assay concerns the target T1, BTK (Homo sapiens, UniProt Q06187).
T1 construct: The GM01501.3 cell line endogenously expresses BTK with a HiBiT fusion tag via CRISPR knock-in at its C-terminal region; endogenous in cells; host or cells: GM01501.3 (GM01501 cells engineered by CRISPR knock-in of HiBiT at the BTK locus)
Kind of assay: BTK degradation assay using the HiBiT Method (Nano-Glo HiBiT Lytic Assay, GM01501.3 cells). It is filed as cell-based. Particulars: HiBiT Degradation on GM01501.3 BTK @ 6 hours. The essentials: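 CRISPR knock-in GM01501.3 cells expressing endogenous BTK with C-terminal HiBiT tag, treated 6 h at 37 °C with compounds, 11-point half-log titration from 10 μM top, duplicates. Remaining BTK quantified by Nano-Glo HiBiT lytic luminescence versus DMSO controls; DC50 reported.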
On the technique in general: HiBiT is a short tag that completes a luciferase, so light tracks the accessible tagged protein.
As for `Cc1cc(-c2ncnn3cc(-c4cccc5c(CN6CCC(c7ccc(C8CCC(=O)NC8=O)cc7)CC6)n(C)nc45)cc23)ccc1CNC(=O)c1noc(C(C)(C)C)n1` (centres unmarked) [Example 212, 5-(tert-butyl)-N-(4-(6-(3-((4-(4-(2,6-dioxopiperidin-3-yl)phenyl)piperidin-1-yl)methyl)-2-methyl-2H-indazol-7-yl)pyrrolo[2,1-f][1,2,4]triazin-4-yl)-2-methylbenzyl)-1,2,4-oxadiazole-3-carboxamide], the DC50 is 0.1 to 0.5 µM.

`Cc1cc(-c2ncnn3cc(-c4nccc(CN5CCC(c6ccc(C7CCC(=O)NC7=O)cc6)CC5)n4)cc23)ccc1CNC(=O)c1noc(C(C)(C)C)n1` (centres unmarked) [Example 215, 5-(tert-butyl)-N-(4-(6-(4-((4-(4-(2,6-dioxopiperidin-3-yl)phenyl)piperidin-1-yl)methyl)pyrimidin-2-yl)pyrrolo [2,1-f][1,2,4]triazin-4-yl)-2-methylbenzyl)-1,2,4-oxadiazole-3-carboxamide] yielded a DC50 of less than 0.1 µM.

In the case of `Cc1cc(-c2ncnn3cc(CCN4CCC(c5cc6c(cc5F)c(N5CCC(=O)NC5=O)nn6C)CC4)cc23)ccc1CNC(=O)c1noc(C(C)(C)C)n1` [Example 256, 5-(tert-butyl)-N-(4-(6-(2-(4-(3-(2,4-dioxotetrahydropyrimidin-1(2H)-yl)-5-fluoro-1-methyl-1H-indazol-6-yl)piperidin-1-yl)ethyl)pyrrolo[2,1-f][1,2,4]triazin-4-yl)-2-methylbenzyl)-1,2,4-oxadiazole-3-carboxamide], the DC50 was less than 0.1 µM.

`Cc1cc(-c2ncnn3cc(-c4ccc(CN5CCC(c6ccc(NC7CCC(=O)NC7=O)cc6)CC5)cc4)cc23)ccc1CNC(=O)c1cc2ccccc2s1` (centres unmarked) [Example 77, N-[[4-[6-[4-[[4-[4-[(2,6-dioxo-3-piperidyl)amino]phenyl]-1-piperidyl]methyl]phenyl]pyrrolo[2,1-f][1,2,4]triazin-4-yl]-2-methyl-phenyl]methyl]benzothiophene-2-carboxamide] returned a DC50 of less than 0.1 µM.

The molecule `Cn1nc(N2CCC(=O)NC2=O)c2ccc(C3CCN(CCCCc4cc5c(-c6ccc7c(c6)OCCCC7NC(=O)c6noc(C(C)(C)C)n6)ncnn5c4)CC3)cc21` (centres unmarked) [Example 290, 5-(tert-butyl)-N-(8-(6-(4-(4-(3-(2,4-dioxotetrahydropyrimidin-1(2H)-yl)-1-methyl-1H-indazol-6-yl)piperidin-1-yl)butyl)pyrrolo[2,1-f][1,2,4]triazin-4-yl)-2,3,4,5-tetrahydrobenzo[b]oxepin-5-yl)-1,2,4-oxadiazole-3-carboxamide] gave a DC50 of less than 0.1 µM.

In turn, `CC(C)(C)c1nc(C(=O)NCc2cc(F)c(-c3ncnn4cc(-c5ccc(CN6CCC(c7ccc(NC8CCC(=O)NC8=O)cc7)CC6)cc5)cc34)cc2Cl)no1` (centres unmarked) [Example 49, 5-tert-butyl-N-[[2-chloro-4-[6-[4-[[4-[4-[(2,6-dioxo-3-piperidyl)amino]phenyl]-1-piperidyl]methyl]phenyl]pyrrolo[2,1-f][1,2,4]triazin-4-yl]-5-fluoro-phenyl]methyl]-1,2,4-oxadiazole-3-carboxamide] displayed a half-maximal degradation concentration (DC50) of less than 0.1 µM.

Regarding `Cc1cc(-c2ncnn3cc(-c4ccc(CN5CCC(c6ccc(NC7CCC(=O)NC7=O)cc6)CC5)cc4)cc23)ccc1CNC(=O)c1cnc(C(C)(C)C)cn1` (centres unmarked) [Example 82, 5-tert-butyl-N-[[4-[6-[4-[[4-[4-[(2,6-dioxo-3-piperidyl)amino]phenyl]-1-piperidyl]methyl]phenyl]pyrrolo[2,1-f][1,2,4]triazin-4-yl]-2-methyl-phenyl]methyl]pyrazine-2-carboxamide], the DC50 was less than 0.1 µM.

In the case of `Cc1cc(-c2ncnn3cc(CCN4CCC(c5ccc(C6CCC(=O)NC6=O)cc5)CC4)cc23)ccc1CNC(=O)c1noc(C(C)(C)C)n1` (centres unmarked) [Example 116, 5-tert-butyl-N-[[4-[6-[2-[4-[4-(2,6-dioxo-3-piperidyl)phenyl]-1-piperidyl]ethyl]pyrrolo[2,1-f][1,2,4]triazin-4-yl]-2-methyl-phenyl]methyl]-1,2,4-oxadiazole-3-carboxamide], the DC50 was less than 0.1 µM.

`Cc1cc(-c2ncnn3cc(-c4cccc(CN5CCC(c6ccc7c(N8CCC(=O)NC8=O)nn(C)c7c6)CC5)n4)cc23)ccc1CNC(=O)c1noc(C(C)(C)C)n1` [Example 248, 5-(tert-butyl)-N-(4-(6-(6-((4-(3-(2,4-dioxotetrahydropyrimidin-1(2H)-yl)-1-methyl-1H-indazol-6-yl)piperidin-1-yl)methyl)pyridin-2-yl)pyrrolo[2,1-f][1,2,4]triazin-4-yl)-2-methylbenzyl)-1,2,4-oxadiazole-3-carboxamide]: the DC50 is less than 0.1 µM.

`Cc1cc(-c2ncnn3cc(N4CCN(C(=O)CCC5CCCN5C(=O)c5ccc(OC6CCC(=O)NC6=O)cc5)CC4)cc23)ccc1CNC(=O)c1noc(C(C)(C)C)n1` (centres unmarked) [Example 181, 5-(tert-butyl)-N-(4-(6-(4-(3-(1-(4-((2,6-dioxopiperidin-3-yl)oxy)benzoyl)pyrrolidin-2-y1)propanoyl)piperazin-1-yl)pyrrolo[2,1-f][1,2,4]triazin-4-yl)-2-methylbenzyl)-1,2,4-oxadiazole-3-carboxamide] had a DC50 of less than 0.1 µM.

`CN(CCn1ccc(NC2CCC(=O)NC2=O)n1)Cc1ccc(-c2cc3c(-c4ccc(CNC(=O)c5noc(C(C)(C)C)n5)c(F)c4)ncnn3c2)cc1F` (centres unmarked) [Example 34, 5-tert-butyl-N-[[4-[6-[4-[[2-[3-[(2,6-dioxo-3-piperidyl)amino]pyrazol-1-yl]ethyl-methyl-amino]methyl]-3-fluoro-phenyl]pyrrolo[2,1-f][1,2,4]triazin-4-yl]-2-fluoro-phenyl]methyl]-1,2,4-oxadiazole-3-carboxamide] had a DC50 of less than 0.1 µM.

The molecule `Cc1cc(-c2ncnn3cc(-c4ccc(OCCCCN5CCC(c6ccc(NC7CCC(=O)NC7=O)cc6)CC5)cc4)cc23)ccc1CNC(=O)c1noc(C(C)(C)C)n1` (centres unmarked) [Example 113, -tert-butyl-N-[[4-[6-[4-[4-[4-[4-[(2,6-dioxo-3-piperidyl)amino]phenyl]-1-piperidyl]butoxy]phenyl]pyrrolo[2,1-f][1,2,4]triazin-4-yl]-2-methyl-phenyl]methyl]-1,2,4-oxadiazole-3-carboxamide] returned a DC50 of less than 0.1 µM.

Take `Cc1cc(-c2ncnn3cc(-c4ccc(OCCN5CCC(c6ccc(C7CCC(=O)NC7=O)cc6)CC5)cc4)cc23)ccc1CNC(=O)c1noc(C(C)(C)C)n1` (centres unmarked) [Example 104, 5-tert-butyl-N-[[4-[6-[4-[2-[4-[4-(2,6-dioxo-3-piperidyl)phenyl]-1-piperidyl]ethoxy]phenyl]pyrrolo[2,1-f][1,2,4]triazin-4-yl]-2-methyl-phenyl]methyl]-1,2,4-oxadiazole-3-carboxamide]: the DC50 was less than 0.1 µM.

The molecule `Cc1cc(-c2ncnn3cc(-c4ccc(OCCCCN5CCC(c6ccc(NC7CCC(=O)NC7=O)cc6)CC5)cc4)cc23)ccc1CNC(=O)c1nc(C(C)(C)C)ns1` (centres unmarked) [Example 112, 3-tert-butyl-N-[[4-[6-[4-[4-[4-[4-[(2,6-dioxo-3-piperidyl)amino]phenyl]-1-piperidyl]butoxy]phenyl]pyrrolo[2,1-f][1,2,4]triazin-4-yl]-2-methyl-phenyl]methyl]-1,2,4-thiadiazole-5-carboxamide] gave a DC50 of less than 0.1 µM.

In turn, `Cn1nc(N2CCC(=O)NC2=O)c2ccc(C3CCN(CCOc4ccc(-c5cc6c(-c7ccc(CNC(=O)c8noc(C(C)(C)C)n8)c(F)c7)ncnn6c5)cc4)CC3)cc21` [Example 109] had a DC50 of less than 0.1 µM.

With `Cc1cc(-c2ncnn3cc(N4CCN(C(=O)c5cn(CCNC(=O)c6ccc(OC7CCC(=O)NC7=O)cc6)nn5)CC4)cc23)ccc1CNC(=O)c1noc(C(C)(C)C)n1` (centres unmarked) [Example 177, 5-(tert-butyl)-N-(4-(6-(4-(1-(2-(4-((2,6-dioxopiperidin-3-yl)oxy)benzamido)ethyl)-1H-1,2,3-triazole-4-carbonyl)piperazin-1-yl)pyrrolo[2,1-f][1,2,4]triazin-4-yl)-2-methylbenzyl)-1,2,4-oxadiazole-3-carboxamide], the DC50 was greater than 1 µM.

Turning to `Cc1cc(-c2ncnn3cc(N4CCN(C(=O)C5(CNC(=O)c6ccc(OC7CCC(=O)NC7=O)cc6)CC5)CC4)cc23)ccc1CNC(=O)c1noc(C(C)(C)C)n1` (centres unmarked) [Example 174, 5-(tert-butyl)-N-(4-(6-(4-(1-((4-((2,6-dioxopiperidin-3-yl)oxy)benzamido)methyl)cyclopropane-1-carbonyl)piperazin-1-yl)pyrrolo[2,1-f][1,2,4]triazin-4-yl)-2-methylbenzyl)-1,2,4-oxadiazole-3-carboxamide], the DC50 was less than 0.1 µM.

In the case of `Cc1cc(-c2ncnn3cc(-c4ccc(CN5CCC(c6ccc(NC7CCC(=O)NC7=O)cc6)CC5)cc4)cc23)ccc1CNC(=O)c1ccc(F)c(F)c1` (centres unmarked) [Example 65, N-[[4-[6-[4-[[4-[4-[(2,6-dioxo-3-piperidyl)amino]phenyl]-1-piperidyl]methyl]phenyl]pyrrolo[2,1-f][1,2,4]triazin-4-yl]-2-methyl-phenyl]methyl]-3,4-difluoro-benzamide], the DC50 was less than 0.1 µM.

`Cc1cc(-c2ncnn3cc(-c4cnc(Oc5ccc(CN6CCC(c7ccc(C8CCC(=O)NC8=O)cc7)CC6)cc5)nc4)cc23)ccc1CNC(=O)c1noc(C(C)(C)C)n1` (centres unmarked) [Example 206, 5-(tert-butyl)-N-(4-(6-(2-(4-((4-(4-(2,6-dioxopiperidin-3-yl)phenyl)piperidin-1-yl)methyl)phenoxy)pyrimidin-5-yl)pyrrolo[2,1-f][1,2,4]triazin-4-yl)-2-methylbenzyl)-1,2,4-oxadiazole-3-carboxamide]: the DC50 is less than 0.1 µM.

The molecule `COc1cc(CN2CCC(c3ccc(NC4CCC(=O)NC4=O)cc3)CC2)ccc1-c1cc2c(-c3ccc(CNC(=O)c4noc(C(C)(C)C)n4)c(C)c3)ncnn2c1` (centres unmarked) [Example 21, 5-tert-butyl-N-[[4-[6-[4-[[4-[4-[(2,6-dioxo-3-piperidyl)amino]phenyl]-1-piperidyl]methyl]-2-methoxy-phenyl]pyrrolo[2,1-f][1,2,4]triazin-4-yl]-2-methyl-phenyl]methyl]-1,2,4-oxadiazole-3-carboxamide] returned a 50% degradation concentration (DC50) of less than 0.1 µM.
